The results in this text go back to publication PMC9658223, “New, Eco-Friendly Method for Synthesis of 3-Chlorophenyl and 1,1′-Biphenyl Piperazinylhexyl Trazodone Analogues with Dual 5-HT1A/5-HT7 Affinity and Its Antidepressant-like Activity” (Molecules, 2022).

In one series the target is T1, 5-HT7 receptor (Homo sapiens, UniProt P34969).
T1 construct: gene HTR7; 5-HT7bR
As to the kind of experiment: LANCE Ultra cAMP assay, inhibition of 5-CT-induced cAMP in HEK-293 cells overexpressing 5-HT7bR. The series is classed as cell-based. From the text:
LANCE Ultra cAMP assay, inhibition of 5-CT-induced cAMP in HEK-293 cells overexpressing 5-HT7bR on 5-HT7 receptor | Both behaved as 5-HT7R antagonists | Both behaved as 5-HT7R antagonists, while 7b·HCl additionally acted as a 5-HT1AR antagonist in a cAMP assay.
(In general: Time-resolved FRET reads energy transfer from a long-lived donor to a nearby acceptor.)

The target in the next series is T2, 5-HT1A receptor (Homo sapiens, UniProt P08908).
T2 construct: gene HTR1A
T2 sequence (P08908 1-422): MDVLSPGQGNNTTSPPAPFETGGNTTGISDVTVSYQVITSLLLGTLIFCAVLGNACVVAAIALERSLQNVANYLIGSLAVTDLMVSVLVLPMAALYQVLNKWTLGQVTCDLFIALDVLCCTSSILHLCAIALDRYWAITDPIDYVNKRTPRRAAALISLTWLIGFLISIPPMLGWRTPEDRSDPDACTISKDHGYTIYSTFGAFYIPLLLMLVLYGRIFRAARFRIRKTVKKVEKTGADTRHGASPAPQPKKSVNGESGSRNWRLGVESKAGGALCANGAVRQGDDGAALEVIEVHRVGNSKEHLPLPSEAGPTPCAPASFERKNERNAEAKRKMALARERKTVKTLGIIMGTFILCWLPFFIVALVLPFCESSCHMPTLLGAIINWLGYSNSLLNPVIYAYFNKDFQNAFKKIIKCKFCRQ
As to the kind of experiment: LANCE Ultra cAMP functional antagonist assay in HEK293 cells. The series is classed as cell-based. From the text: LANCE Ultra cAMP functional antagonist assay in HEK293 cells on 5-HT1A receptor | 7b·HCl additionally acted as a 5-HT1AR antagonist in a cAMP assay

For a further series, the target named is CYP3A4 (Homo sapiens, UniProt P08684). Kind of series: CYP3A4 P450-Glo luminescence assay (Promega), single concentration […]. It counts as biochemical.
CYP3A4, sequence (P08684 2-503): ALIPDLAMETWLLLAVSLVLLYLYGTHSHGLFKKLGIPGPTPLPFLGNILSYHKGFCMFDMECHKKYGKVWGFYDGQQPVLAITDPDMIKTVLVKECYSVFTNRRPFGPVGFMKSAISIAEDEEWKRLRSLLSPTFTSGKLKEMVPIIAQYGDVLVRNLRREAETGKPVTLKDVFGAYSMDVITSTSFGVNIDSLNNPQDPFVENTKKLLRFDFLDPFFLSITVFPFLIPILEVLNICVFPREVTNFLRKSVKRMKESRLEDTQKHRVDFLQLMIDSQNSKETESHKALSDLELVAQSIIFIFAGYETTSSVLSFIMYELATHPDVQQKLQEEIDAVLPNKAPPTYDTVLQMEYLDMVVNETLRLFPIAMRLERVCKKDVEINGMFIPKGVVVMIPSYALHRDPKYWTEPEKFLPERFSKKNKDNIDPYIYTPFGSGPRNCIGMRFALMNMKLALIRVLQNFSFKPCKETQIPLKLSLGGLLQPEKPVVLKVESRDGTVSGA

Where a name gives a salt, the structure may show the parent alone.

T1 sequence (P34969 1-432): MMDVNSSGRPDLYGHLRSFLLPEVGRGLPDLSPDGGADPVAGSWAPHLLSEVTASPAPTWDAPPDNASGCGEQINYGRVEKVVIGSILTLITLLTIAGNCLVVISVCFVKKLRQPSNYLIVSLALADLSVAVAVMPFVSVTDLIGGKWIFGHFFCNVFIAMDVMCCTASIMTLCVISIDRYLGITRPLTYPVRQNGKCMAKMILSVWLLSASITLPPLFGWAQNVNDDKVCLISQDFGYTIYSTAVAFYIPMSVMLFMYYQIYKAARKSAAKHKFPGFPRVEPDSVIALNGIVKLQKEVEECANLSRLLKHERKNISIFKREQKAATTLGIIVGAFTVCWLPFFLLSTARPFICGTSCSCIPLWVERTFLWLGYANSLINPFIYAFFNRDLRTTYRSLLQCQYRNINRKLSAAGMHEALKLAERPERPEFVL

For the molecule `O=c1n(CCCCCCN2CCN(c3cccc(Cl)c3)CC2)nc2ccccn12` [7a·HCl, 2-(6-(4-(3-chlorophenyl)piperazin-1-yl)hexyl)-[1,2,4]triazolo[4,3-a]pyridin-3(2H)-one hydrochloride], the Kb at 5-HT7 receptor was 87 nM.

Broadly, the inhibition is the relative decrease from the control value, in per cent. Read a low inhibition as a response near the control. As to `O=c1n(CCCCCCN2CCN(c3ccccc3-c3ccccc3)CC2)nc2ccccn12` [7b·HCl, 2-(6-(4-([1,1′-biphenyl]-2-yl)piperazin-1-yl)hexyl)-[1,2,4]triazolo[4,3-a]pyridin-3(2H)-one hydrochloride], the Kb at 5-HT7 receptor was determined as 18 nM; on 5-HT1A receptor, 12 nM. 10 µM produced 35% inhibition against CYP3A4.
